PubChem BioAssay (NCI)
“And” between values parts separate entries of the source, which are not always exact repeats. Equal entries are not always repeated.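 Five concentrations, 48 hours, 96-well plates. GI50 is the concentration that inhibits growth by half. TGI: concentration producing complete growth inhibition.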

How the values were obtained:
Experiment in all cases: inhibition of tumour cell growth, NCI panel, 48 h
[1] = system: HL-60(TB) leukemia
[2] = system: HCT-15 colon
[3] = system: SF-268 CNS
[4] = system: LXFL 529 NSCLC
[5] = system: UO-31 renal
[6] = system: DMS 114 small cell lung
[7] = system: PC-3 prostate
[8] = system: MDA-MB-231 breast
[9] = system: T-47D breast
[10] = system: HS 578T breast

| Compound | TGI [1] | TGI [2] | TGI [3] | TGI [4] | TGI [5] | TGI [6] | also measured |
| --- | --- | --- | --- | --- | --- | --- | --- |
| O=C1C2CC=CCC2C(=O)C12CCc1ccccc12 (stereo not drawn) | > 100 µM | > 100 µM | > 100 µM | > 100 µM | > 100 µM |  |  |
| COc1cc2cc3c4c(cc(OC)c(OC)c4c2cc1OC)CCN3C(=O)N(C)C | > 100 µM | > 100 µM | > 100 µM | > 100 µM | > 100 µM | > 100 µM |  |
| C/C(CC(=O)Nc1ccc(Cl)cc1)=N\NC(=O)C[n+]1ccccc1 | > 100 µM |  | > 100 µM | > 100 µM | > 100 µM | > 100 µM |  |
| Cc1ccc(C(=O)N2c3ccccc3N(C)n3cccc3C2CC(=O)O)cc1 (stereo not drawn) | > 100 µM | > 100 µM | > 100 µM | > 100 µM | > 100 µM | > 100 µM |  |
| CC(C)(c1ccc(Oc2ccc(C#N)c(C#N)c2)cc1)c1ccc(Oc2ccc(C#N)c(C#N)c2)cc1 | > 100 µM |  | > 100 µM | > 100 µM | > 100 µM | > 100 µM | GI50 [1]: > 100 µM; GI50 [6]: > 100 µM; GI50 [3]: > 100 µM; GI50 [4]: > 100 µM |
| NC(=S)N/N=C/c1ccc(O)cn1 | 44.7 µM and 21 µM and 21.7 µM |  |  |  | 66.7 µM and 42 µM and 136 µM |  | TGI [7]: > 1500 µM; TGI [8]: > 427 µM; TGI [9]: > 451 µM; GI50 [1]: 13.7 µM; GI50 [6]: 3.78 µM and 1.04 µM and 2.04 µM; GI50 [2]: 22.1 µM and 13.3 µM; GI50 [3]: 5.55 µM and 3.43 µM; GI50 [5]: 25.5 µM and 7.24 µM; TGI [10]: > 1500 µM |
| COC1=C2C[C@H](O)C(C)C[C@@]2(OC)OC1=O (stereo partly drawn) | > 100 µM | > 100 µM | > 100 µM | > 100 µM | > 100 µM |  |  |
| Clc1cccc(N2CCN(CCN3CCc4c([nH]c5ccccc45)C3c3cccnc3)CC2)c1 (stereo not drawn) | > 100 µM | > 100 µM | > 100 µM | > 100 µM | > 100 µM | > 100 µM | TGI [7]: > 100 µM; TGI [8]: > 100 µM; TGI [9]: > 100 µM; TGI [10]: > 100 µM |
| CC(C)(O)[C@@H]1CC[C@@]2(C)CCC[C@H](O)[C@H]2C1 | > 100 µM | > 100 µM | > 100 µM | > 100 µM | > 100 µM | > 100 µM |  |
| O=[P+](O)c1cc2ccccc2c2ccccc12 | > 100 µM |  | > 100 µM | > 100 µM |  | > 100 µM |  |
| CSc1nc(SC)c2c(C(N)=S)[nH]nc2n1 |  | > 100 µM | > 100 µM | > 100 µM | 49.6 µM | 83 µM |  |
| COC(=O)[C@@]1(O)CC(C)C=C1C=O (stereo partly drawn) | 51.6 µM | 33.1 µM | > 100 µM | > 100 µM | > 100 µM | 89.7 µM |  |
| COc1ccc(-c2nnc(-c3c(C)n(C)n(-c4ccccc4)c3=O)o2)cc1 | > 100 µM | > 100 µM | > 100 µM | > 100 µM | > 100 µM | > 100 µM |  |
| OC(C1CO1)C(O)C1CO1 (stereo not drawn) | 65.2 µM and 49.5 µM | 131 µM and 406 µM | 114 µM and 513 µM |  | 112 µM and 199 µM | 150 µM | GI50 [7]: 76.1 µM; TGI [7]: 150 µM and 220 µM; GI50 [8]: 63 µM; TGI [8]: 69.6 µM and 377 µM; TGI [9]: 150 µM and 425 µM; GI50 [1]: 2.33 µM; GI50 [3]: 27.4 µM and 27.5 µM; GI50 [5]: 37 µM; GI50 [10]: 39.3 µM; TGI [10]: 150 µM and 392 µM |
| CCCCCCCC(=O)OCC1OC(n2cc(F)c(=O)[nH]c2=O)C(NC(=O)OCc2ccccc2)C(O)C1O (stereo not drawn) | > 100 µM | > 100 µM | > 100 µM | > 100 µM | > 100 µM | > 100 µM |  |
| COc1cc([C@H]2c3cc4c(cc3[C@H](NCc3ccc([N+](=O)[O-])cc3)C3COC(=O)[C@H]32)OCO4)cc(OC)c1O (stereo partly drawn) |  | 6.44 µM | > 25.9 µM | > 76 µM | 5.75 µM | > 25.3 µM |  |
| CCC(=O)C(C)C(=O)C(=O)C(=O)OC (stereo not drawn) | > 64.4 µM | > 100 µM | > 100 µM | > 100 µM | > 100 µM | > 100 µM |  |
| O=C1[C@H]2ON(c3ccccc3)C(c3ccccc3F)[C@H]2C(=O)N1c1ccc(Cc2ccc(N3C(=O)[C@@H]4ON(c5ccccc5)C(c5ccccc5F)[C@@H]4C3=O)cc2)cc1 (stereo partly drawn) | > 100 µM | > 100 µM | > 100 µM | > 100 µM | > 100 µM | > 100 µM |  |
| COc1cc(C=O)c(-c2cc3c(cc2C2(C)OCCS2)OCO3)c(OC)c1OC (stereo not drawn) | 82.1 µM | 30.2 µM | > 239 µM | 54 µM | 64.2 µM | 71.8 µM |  |
| CN(C(=O)C12C3(C(=O)C(C)(C)C)C4C5(C#N)C3C1(C(=O)C(C)(C)C)C5C42C(=O)C(C)(C)C)C(C)(C)C (stereo not drawn) | > 50 µM | > 50 µM | > 50 µM | > 50 µM | > 50 µM | > 50 µM |  |
| O=C(O)C(C(=O)C(=O)C(C(=O)O)c1ccc(Cl)cc1)c1ccc(Cl)cc1 (stereo not drawn) | 6.82 µM |  | 11.9 µM | 10.7 µM | 15.4 µM | 5.64 µM |  |
| CCCCN=C(NC#N)N(Cc1ccccc1)Cc1ccccc1 | 49.6 µM | 29.8 µM | > 100 µM | 32.8 µM | 58 µM |  |  |
| O=c1cc(-c2ccccc2)nc(/C=C(\O)c2ccncc2)n1-c1ccccc1 | > 100 µM | > 100 µM | > 100 µM | > 100 µM | > 100 µM | > 100 µM |  |
| O=C(NCCCCCCNC(=O)n1cc(F)c(=O)[nH]c1=O)NCCCOCCOCCOCCOCCOCCOCCOCCOCCOCCOCCOCCOCCOCCOCCOCCOCCOCCOCCOCCOCCOCCCNC(=O)C(O)C(O)C(OC1OC(CO)C(O)C(O)C1O)C(O)CO (stereo not drawn) | > 100 µM | > 100 µM | > 100 µM |  | > 100 µM | > 100 µM | TGI [7]: > 100 µM; TGI [8]: > 100 µM; TGI [9]: > 100 µM; TGI [10]: > 100 µM |
| NC(=O)C(=Cc1ccc(CP(=O)(O)O)cc1)C(N)=O |  | > 100 µM |  | > 100 µM | > 100 µM | > 100 µM |  |
| CN(C)C(=S)/N=c1\ss/c(=N\C(=S)N(C)C)n1-c1ccc(Cl)cc1 | > 100 µM | > 100 µM | > 100 µM | > 100 µM | > 100 µM |  |  |
| Cc1cccc(Cl)c1NC(=O)c1cnc(Nc2cc(N3CCOCC3)cc(N3CCOCC3)c2)s1 | > 10 µM | > 10 µM | > 10 µM |  | 0.789 µM |  | GI50 [7]: 0.152 µM; TGI [7]: > 10 µM; GI50 [8]: 0.0189 µM; TGI [8]: > 4.59 µM; GI50 [9]: 0.0368 µM; TGI [9]: > 10 µM; GI50 [1]: 9.98 µM; GI50 [2]: 0.39 µM; GI50 [3]: 0.0626 µM; GI50 [5]: 0.0067 µM; GI50 [10]: 0.0151 µM; TGI [10]: 0.157 µM |
| NC(CC(=O)Nc1ccc(Cl)cc1)=Nc1ccccc1 | > 100 µM |  | > 100 µM | > 100 µM | > 100 µM |  |  |
| COC(=O)c1ccc(NC(=O)c2cc(OC)c(OC)c(OC)c2)cc1 | 4.8 µM |  | > 100 µM | > 100 µM | 66.9 µM | 0.706 µM |  |
